# From BindingDB's records for doi:10.1016/S0960-894X(01)80879-9 (1993)
# Where a name gives a salt, the structure may show the parent alone.
# Legend:
# [1] = Binding affinity for dopamine receptor D2 in guinea pig striatal membrane using radiolabeled ligand [3H]spiperone
# [2] = target: Sigma-1 receptor (Cavia porcellus); assay: Binding affinity for sigma receptor in guinea pig brain membrane using radiolabeled ligand [3H]-(+)-SKF- 10,047 was determined
Structure (SMILES),Ki [1] [nM],Ki [2] [nM]
CCN(CC)CCCC1(C)OC=C(c2ccccc2)C1=O (configuration not stated) [2-(3-Diethylamino-propyl)-2-methyl-4-phenyl-furan-3-one; hydrochloride],> 10000,16
O=C1C=C(c2ccccc2)OC12CCNCC2 [2-Phenyl-1-oxa-8-aza-spiro[4.5]dec-2-en-4-one; hydrochloride],> 10000,462
CN1CCC2(CC1)OC=C(c1ccccc1)C2=O [8-Methyl-3-phenyl-1-oxa-8-aza-spiro[4.5]dec-2-en-4-one; hydrochloride],> 10000,580
CCN(CC)CCC1(C)OC(c2ccccc2)=CC1=O (configuration not stated) [2-(2-Diethylamino-ethyl)-2-methyl-5-phenyl-furan-3-one; hydrochloride],> 10000,44
"CN1CCC2(CC1)OC(C)(c1ccccc1)CC2=O (configuration not stated) [2,8-Dimethyl-2-phenyl-1-oxa-8-aza-spiro[4.5]decan-4-one; compound with (E)-but-2-enedioic acid]",10000,214
CN1CCC2(CC1)OC=C(c1ccc(F)cc1)C2=O [3-(4-Fluoro-phenyl)-8-methyl-1-oxa-8-aza-spiro[4.5]dec-2-en-4-one; hydrochloride],2600,4000
O=C1C(c2ccccc2)=COC12CCNCC2 [3-Phenyl-1-oxa-8-aza-spiro[4.5]dec-2-en-4-one; hydrochloride],10000,6220
O=C1C=C(c2ccc(F)cc2)OC12CCN(CCc1ccccc1)CC2 [2-(4-Fluoro-phenyl)-8-phenethyl-1-oxa-8-aza-spiro[4.5]dec-2-en-4-one; hydrochloride],5320,6
O=C(CCCN1CCCC2(C1)OC(c1ccccc1)=CC2=O)c1ccc(F)cc1 (configuration not stated) [7-[4-(4-Fluoro-phenyl)-4-oxo-butyl]-2-phenyl-1-oxa-7-aza-spiro[4.5]dec-2-en-4-one; hydrochloride],152,384
O=C1C=C(c2ccccc2)OC12CCCN(Cc1ccccc1)C2 (configuration not stated) [7-Benzyl-2-phenyl-1-oxa-7-aza-spiro[4.5]dec-2-en-4-one; hydrochloride],> 10000,4520
CN1CCC2(CC1)OC(c1ccccc1)=CC2=O [8-Methyl-2-phenyl-1-oxa-8-aza-spiro[4.5]dec-2-en-4-one; hydrochloride],2900,298
O=C1C(c2ccc(F)cc2)=COC12CCN(CC1CCCCC1)CC2 [8-Cyclohexylmethyl-3-(4-fluoro-phenyl)-1-oxa-8-aza-spiro[4.5]dec-2-en-4-one; hydrochloride],962,2
CCN(CC)CCC1(C)OC=C(c2ccccc2)C1=O (configuration not stated) [2-(2-Diethylamino-ethyl)-2-methyl-4-phenyl-furan-3-one; hydrochloride],10000,9
"CN(C)CCC1(c2ccccc2)OC=C(c2ccccc2)C1=O (configuration not stated) [2-(2-Dimethylamino-ethyl)-2,4-diphenyl-furan-3-one; hydrochloride]",2690,223

# Now from value to compound:
Ki [1] [nM],Ki [2] [nM],Structure (SMILES)
2110,232,O=C1C(c2ccccc2)=COC12CCN(Cc1cccc(Cl)c1)CC2 [8-(3-Chloro-benzyl)-3-phenyl-1-oxa-8-aza-spiro[4.5]dec-2-en-4-one; hydrochloride]
642,1,O=C1C(c2ccccc2)=COC12CCN(CC1CCCCC1)CC2 [8-Cyclohexylmethyl-3-phenyl-1-oxa-8-aza-spiro[4.5]dec-2-en-4-one; hydrochloride]
> 10000,695,O=C1C(c2ccccc2)=COC12CCCN(Cc1ccccc1)C2 (configuration not stated) [7-Benzyl-3-phenyl-1-oxa-7-aza-spiro[4.5]dec-2-en-4-one; hydrochloride]
4870,163,C=CCN1CCC2(CC1)OC=C(c1ccccc1)C2=O [8-Allyl-3-phenyl-1-oxa-8-aza-spiro[4.5]dec-2-en-4-one; hydrochloride]
1420,–,O=C1C(c2ccc(F)cc2)=COC12CCN(Cc1ccccc1)CC2 [8-Benzyl-3-(4-fluoro-phenyl)-1-oxa-8-aza-spiro[4.5]dec-2-en-4-one; hydrochloride]
2370,4,O=C1C(c2ccccc2)=COC12CCN(Cc1ccccc1)CC2 [8-Benzyl-3-phenyl-1-oxa-8-aza-spiro[4.5]dec-2-en-4-one; hydrochloride]
> 10000,1,O=C1C=C(c2ccccc2)OC12CCN(Cc1ccccc1)CC2 [8-Benzyl-2-phenyl-1-oxa-8-aza-spiro[4.5]dec-2-en-4-one; hydrochloride]
20000,32,O=C1C(c2ccccc2)=COC12CCN(Cc1ccccc1)C2 (configuration not stated) [7-Benzyl-3-phenyl-1-oxa-7-aza-spiro[4.4]non-2-en-4-one; hydrochloride]
32000,7500,Cc1cc(CN2CCC3(CC2)OC=C(c2ccccc2)C3=O)on1 [8-(3-Methyl-isoxazol-5-ylmethyl)-3-phenyl-1-oxa-8-aza-spiro[4.5]dec-2-en-4-one; hydrochloride]
2420,3,O=C1C(c2ccccc2)=COC12CCN(Cc1ccc(F)cc1)CC2 [8-(4-Fluoro-benzyl)-3-phenyl-1-oxa-8-aza-spiro[4.5]dec-2-en-4-one; hydrochloride]
70,17,O=C(CCCN1CCC2(CC1)OC=C(c1ccccc1)C2=O)c1ccc(F)cc1 [8-[4-(4-Fluoro-phenyl)-4-oxo-butyl]-3-phenyl-1-oxa-8-aza-spiro[4.5]dec-2-en-4-one; hydrochloride]
2070,30,COc1ccc(C2=COC3(CCN(CCc4ccccc4)CC3)C2=O)cc1 [3-(4-Methoxy-phenyl)-8-phenethyl-1-oxa-8-aza-spiro[4.5]dec-2-en-4-one; hydrochloride]
3130,35,O=C1C(c2ccc3ccccc3c2)=COC12CCN(CCc1ccccc1)CC2 [3-Naphthalen-2-yl-8-phenethyl-1-oxa-8-aza-spiro[4.5]dec-2-en-4-one; hydrochloride]
7180,1,O=C1C=C(c2ccccc2)OC12CCN(CCc1ccccc1)CC2 [8-Phenethyl-2-phenyl-1-oxa-8-aza-spiro[4.5]dec-2-en-4-one; hydrochloride]
217,24,O=C1C(c2ccc(F)cc2)=COC12CCN(CCc1ccccc1)CC2 [3-(4-Fluoro-phenyl)-8-phenethyl-1-oxa-8-aza-spiro[4.5]dec-2-en-4-one; hydrochloride]
